Measured values from PubChem BioAssay AID463203 (Broad Institute, 2010).
Active and inactive are the calls of the source.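 The calls were made as follows: active = more than half of replicate measurements showing over 20% loss of kinase signal relative to plate controls; inconclusive = some but at most half of replicates over 20% loss; inactive = no replicate over 20% signal loss.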

Molecular target: Glycogen synthase kinase-3 alpha (Homo sapiens) (UniProt P49840)
Test: concentration-response blocking of human GSK3A – biochemical, luminescence, cell-free homogeneous, retest, dose response (AID 463203)
Conditions: GSK-3 alpha enzyme, ADP-Glo luminescence, 60 min

Glycogen synthase kinase-3 alpha (Homo sapiens), sequence (P49840 whole entry, looked up): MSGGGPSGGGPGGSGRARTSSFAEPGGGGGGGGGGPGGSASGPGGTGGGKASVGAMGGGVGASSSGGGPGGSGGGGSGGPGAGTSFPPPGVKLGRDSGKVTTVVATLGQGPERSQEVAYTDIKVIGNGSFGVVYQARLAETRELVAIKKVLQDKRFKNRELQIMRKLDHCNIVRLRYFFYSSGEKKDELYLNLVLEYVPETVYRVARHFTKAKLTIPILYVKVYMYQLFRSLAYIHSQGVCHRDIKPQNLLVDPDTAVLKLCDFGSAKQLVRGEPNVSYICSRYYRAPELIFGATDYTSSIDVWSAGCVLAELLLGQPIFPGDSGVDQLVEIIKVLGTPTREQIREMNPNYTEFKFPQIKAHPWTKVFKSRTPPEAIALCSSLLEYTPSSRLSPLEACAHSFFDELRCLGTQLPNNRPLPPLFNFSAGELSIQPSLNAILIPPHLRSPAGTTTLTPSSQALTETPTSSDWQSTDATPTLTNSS

| SMILES | AC50 |
| --- | --- |
| O=C(CNC(=O)c1ccccc1)N/N=C/C=C/c1ccccc1 | > 30 µM (inactive) |
| CCSc1nnc2ccc(-c3cccs3)nn12 | > 30 µM (inactive) |
| COc1ccc(CC(=O)Oc2cc(C)ccc2C)cc1 | > 30 µM (inactive) |
| COc1ccc(CCNc2cc(C)nc(N)n2)cc1OC | > 30 µM (inactive) |
| O=S(=O)(NCC1CCCO1)c1ccc(Cl)nc1 (centres undefined) | > 30 µM (inactive) |
| CCOC(=O)c1cc(-c2ccccc2)n(CCC(=O)NC(C)CC)c1C (centres undefined) | > 30 µM (inactive) |
| Nc1c(C(=O)NCc2ccco2)c2nc3ccccc3nc2n1CCN1CCOCC1 | > 30 µM (inactive) |
| COc1ccc(N=Nc2c(C)n[nH]c2C)cc1 | > 30 µM (inactive) |
| O=C(CNS(=O)(=O)c1ccccc1)N/N=C/c1ccc(O)cc1 | 30.2 µM |
| CO/N=C/c1ccc(N2CCCC2)c([N+](=O)[O-])c1 | > 30 µM (inactive) |
| COc1ccc(C2CC(=O)Nc3n[nH]c(-c4ccccc4)c32)cc1OC (centres undefined) | 26.9 µM |
| Cc1cnn(C(=O)c2ccccc2Br)c1 | > 30 µM (inactive) |
| O=C1CCCC2=C1C(c1cccc(O)c1)c1c(ccc3ncccc13)N2 (centres undefined) | > 30 µM (inactive) |
| CC(C)(C)NC(=O)/C(=C\c1ccccc1F)NC(=O)c1ccc([N+](=O)[O-])cc1 | > 30 µM (inactive) |
| COCc1nnc(NC(=O)CCCCCN2C(=O)c3ccccc3C2=O)s1 | > 30 µM (inactive) |
| COc1cc(CN2CCCN(C)CC2)c([N+](=O)[O-])cc1OC | > 30 µM (inactive) |
| Nc1ncnc2c1ncn2[C@@H]1O[C@H](COS(=O)(=O)O)[C@@H](O)[C@H]1O | > 30 µM (inactive) |
| CCN1CCN(c2nc(Nc3cccc(OC)c3)nc(N)c2[N+](=O)[O-])CC1 | > 30 µM (inactive) |
| COc1ccc(-c2csc3ncnc(NCCCO)c23)cc1 | 20.6 µM |
| CC(C)C(=O)NC(=S)/C=C1/N(C)c2ccccc2C1(C)C | > 30 µM (inactive) |
| O=C(c1ccc2c(c1)OCO2)N1CCC2(CC1)OCCO2 | > 30 µM (inactive) |
| Clc1ccccc1/C=N/Nc1cc(N2CCOCC2)ncn1 | > 30 µM (inactive) |
| CC1(C)CC(=O)C(C(c2cccnc2)C2C(=O)CC(C)(C)CC2=O)C(=O)C1 | > 30 µM (inactive) |
| O=C1NC(=S)N/C1=C\c1ccc(N2CCOCC2)cc1 | > 30 µM (inactive) |
| CC(=NCCCn1ccnc1)c1c(O)n(C)c(=O)n(C)c1=O | > 30 µM (inactive) |
| O=c1[nH]c(CN2CCN(CCO)CC2)nc2ccccc12 | > 30 µM (inactive) |

| SMILES | AC50 |
| --- | --- |
| CCOc1ccccc1C1N(c2ccc(OC)cc2)C(=O)C2CCCN21 (centres undefined) | > 30 µM (inactive) |
| COc1ccc(OC)c(/C=C2\S/C(=N/NC(=O)c3ccc4ccccc4c3)NC2=O)c1 | > 30 µM (inactive) |
| COCc1nnc(NC(=O)CCN2C(=O)c3ccccc3C2=O)s1 | > 30 µM (inactive) |
| CC(=O)Nc1ccc(NS(=O)(=O)c2cccc3nonc23)cc1 | > 30 µM (inactive) |
| NC(=O)c1sc2nc3c(c(-c4ccccc4)c2c1N)CCC3 | 13.9 µM |
| Oc1ccc(-c2nc3ncccn3c2Nc2ccc3c(c2)OCO3)cc1 | 6.33 µM |
| COCCCNC(=O)C(=O)NC1CCCCC1C (centres undefined) | > 30 µM (inactive) |
| COc1ccc(/C=C2\Oc3cc(OCC(=O)N4CCC[C@H]4C(=O)O)ccc3C2=O)c(OC)c1 | > 30 µM (inactive) |
| COc1ccc(-c2cc(C(F)(F)F)nc(SCC(=O)NCc3cccs3)n2)cc1OC | > 30 µM (inactive) |
| O=C(O)CCNc1ccc(NCCC(=O)O)c2c1C(=O)c1ccccc1C2=O | 22.7 µM |
| CCn1c(=O)[nH]c(=O)c2c(N)c(C(=O)c3cc(F)ccc3F)sc21 | 10.4 µM |
| Cc1ccc(S(=O)(=O)Nc2ccc(O)c3cccnc23)cc1 | > 30 µM (inactive) |
| O=C(CSc1cccs1)Nc1ccc(Cl)cc1 | > 30 µM (inactive) |
| CCCCCCCCCCOC(=O)Cn1c(COc2ccc(OC)cc2)[n+](C)c2ccccc21 | > 30 µM (inactive) |
| COc1cccc(/C=N/n2cncn2)c1OCC#N | > 30 µM (inactive) |
| CCCC(=O)NNC(=O)c1c(O)c2ccccc2[nH]c1=O | > 30 µM (inactive) |
| C=CCN1C(=O)/C(=C\c2cccs2)C(C(=O)OC)=C1C | > 30 µM (inactive) |
| Cc1oc2ccc(O)c(CN(C)C)c2c1C(=O)c1ccccc1 | > 30 µM (inactive) |
| Cc1cc2nc(-c3cccnc3SCC(=O)NC3CC3)[nH]c2cc1C | > 30 µM (inactive) |
| Cc1nc(NCC2CCCO2)[nH]c(=O)c1CCC(C)C (centres undefined) | > 30 µM (inactive) |
| Cc1ccc(C(=O)Nc2cccc(C(=O)NC3CCCCC3)c2)cc1 | > 30 µM (inactive) |
| COc1ccc(OCc2nc(N)nc(Nc3ccccc3OC)n2)cc1 | > 30 µM (inactive) |
| COCc1c(C(=O)N/N=C\c2cccnc2)nnn1-c1nonc1N | > 30 µM (inactive) |
| Cc1ccc(C)c(-n2c3nc(=O)n(C)c(=O)c-3cc3ccccc32)c1 | 31.3 µM |
| Cc1cc(C(C#N)c2ccccc2F)n2ncnc2n1 (centres undefined) | 1.87 µM |
| O=C(O)C1CCCC[C@H]1C(=O)Nc1ncc([N+](=O)[O-])s1 (some centres undefined) | > 30 µM (inactive) |

| SMILES | AC50 |
| --- | --- |
| CCOc1c(O)ccc(/C=C2\SC(=S)NC2=O)c1[N+](=O)[O-] | 20.8 µM |
| COc1cc(OC)cc(C(=O)O/N=C(\N)c2ccccn2)c1 | > 30 µM (inactive) |
| CCc1cc2c(N3CCN(c4nnc(CC)s4)CC3)ncnc2s1 | 16 µM |
| O=C(NCCc1csc(-c2cccnc2)n1)c1ccc(Br)o1 | 17.8 µM |
| CCOc1cccc(-c2c(C(=O)N/N=C/c3cccnc3)nnn2-c2nonc2N)c1 | 4.67 µM |
| N#CC1=C2SCN(Cc3ccco3)CN2C(=O)CC1c1cccc2ccccc12 (centres undefined) | > 30 µM (inactive) |
| COc1c(OC)c(O)c2c(=O)c(O)c(-c3ccccc3)oc2c1OC | > 30 µM (inactive) |
| COc1ccc(-c2nnc(SCC(=O)Nc3ccccc3OC)o2)cc1 | > 30 µM (inactive) |
| Nc1nc(NCCO)nc(N2CCCCCC2)c1[N+](=O)[O-] | 18.4 µM |
| CC1(C)CC(=O)C(C=NCCc2ccc(O)cc2)=C(O)C1 | > 30 µM (inactive) |
| CCN1/C(=C\C(C)=O)Sc2ccc(OC)cc21 | 17.4 µM |
| CNC(=O)c1ccsc1NC(=O)C1CCCN1S(=O)(=O)c1cccs1 (centres undefined) | 17.2 µM |
| Cc1ccccc1C(=O)O/N=C(\N)c1cccc([N+](=O)[O-])c1 | > 30 µM (inactive) |
| COc1ccc(C(=O)c2sc3nc(-c4ccc(OC)cc4)ccc3c2N)cc1 | > 30 µM (inactive) |
| N#CC1=C2SCN(Cc3ccco3)CN2C(=O)CC1c1ccc(Cl)cc1 (centres undefined) | > 30 µM (inactive) |
| CC(=O)C(Sc1ccc2nnc(-c3ccncc3)n2n1)C(C)=O | > 30 µM (inactive) |
| O=C(c1ccc2c3n(nc2c1)-c1ccc(Cl)cc1CO3)N1CCOCC1 | > 30 µM (inactive) |
| COc1ccc(Nc2cc(C)nc(N)n2)cc1 | > 30 µM (inactive) |
| CCOC(=O)Nc1nc(C)c(C(=O)c2ccc(Cl)cc2)s1 | > 30 µM (inactive) |
| CC(=O)Oc1cc2c3c(c1)/C(=C1/SC(=S)NC1=O)C(=O)N3C(C)(C)C=C2C | > 30 µM (inactive) |
| Cc1ccc(SCCc2cc[n+](CC(=O)c3ccccc3)cc2)cc1 | > 30 µM (inactive) |
| COc1ccc(/C=N/NC(=O)CSCc2ccc([N+](=O)[O-])cc2)cc1OC | > 30 µM (inactive) |
| COc1ccc(-n2c(C)c([N+](=O)[O-])c3ccc(O)c(CN(C)C)c32)cc1 | 5.94 µM |
| O=C(O)c1ccc2c(c1)C(=O)N(CCCCCCCN1C(=O)c3ccc(C(=O)O)cc3C1=O)C2=O | 22.2 µM |
| COc1ccc([C@H]2[C@H](C(=O)C(C)(C)C)N3N=Cc4ccccc4C3[C@]23N=C(c2ccccc2)OC3=O)cc1OC (some centres undefined) | > 30 µM (inactive) |
| CS(=O)(=O)N1CCN(c2ccc(NC(=O)c3ccc(Br)o3)cc2)CC1 | > 30 µM (inactive) |

| SMILES | AC50 |
| --- | --- |
| O=C(Oc1cccc(NC(=O)c2ccco2)c1)c1cccc(S(=O)(=O)N2CCCCC2)c1 | > 30 µM (inactive) |
| COc1ccc(-c2nc(N)ncc2-c2ccc(OC)c(OC)c2)c(O)c1 | 29.2 µM |
| CN1/C(=C/C2CC(=O)NC2=O)C(C)(C)c2ccccc21 (centres undefined) | 5.14 µM |
| CCSC1(SCC)N=C(N)C2(C#N)C(c3ccc(F)cc3)C12C#N (centres undefined) | > 30 µM (inactive) |
| Cc1csc(NC(=O)c2ccc3c(c2)OCO3)n1 | > 30 µM (inactive) |
| Fc1ccc(Nc2ncnc3sccc23)cc1 | > 30 µM (inactive) |
| COc1ccc(COC(=O)C2=C(C)NC(=O)NC2c2ccccc2F)cc1 (centres undefined) | > 30 µM (inactive) |
| COc1ccc(C2=Nn3c(nnc3-c3cccnc3)SC2)cc1OC | > 30 µM (inactive) |
| CCCn1c2ccccc2c2nc3ccccc3nc21 | > 30 µM (inactive) |
| COc1ccc(/C=C/c2nc(N)nc(-c3ccccc3O)n2)cc1OC | > 30 µM (inactive) |
| C/C(CC(=O)N(C(C)C)C(C)C)=N\NC(=O)COc1ccc(Cl)cc1Cl | > 30 µM (inactive) |
| CCCCOc1ccc(CSc2nc(C)[nH]c2[N+](=O)[O-])cc1[N+](=O)[O-] | > 30 µM (inactive) |
| COc1cc(/C=N/NC(=O)c2ccncc2)ccc1OCCN1CCCCC1 | > 30 µM (inactive) |
| CCN1CCN(CC(=O)Nc2nc3ccc(OC)cc3s2)CC1 | > 30 µM (inactive) |
| O=C(NC(=S)Nc1cccc2cnccc12)c1ccccc1 | > 30 µM (inactive) |
| COC(=O)CSc1nc(NCC(C)C)nc(N2CCOCC2)n1 | > 30 µM (inactive) |
| COC(=O)CCCNc1ncccc1[N+](=O)[O-] | > 30 µM (inactive) |
| COc1ccc(OC)c(/C=N/NC(=O)c2nnn(-c3nonc3N)c2-c2cccs2)c1 | 1.35 µM |
| O=c1[nH]c(=O)n(C2CCCCC2)c(O)c1C=NCCCn1ccnc1 | 4.06 µM |
| COc1ccc2nc(SCc3nc(N)nc(Nc4ccccc4)n3)[nH]c2c1 | 12.5 µM |
| COc1ccc(NC(=O)Nc2ccccc2F)c(C)c1 | > 30 µM (inactive) |
| CCOC(=O)CSc1ncnc2c(C(=O)OCC)c3n(c12)CCC3 | > 30 µM (inactive) |
| CCC(CC)c1nnc(NC(=O)Oc2ccccc2)s1 | > 30 µM (inactive) |
| COc1c(/C=C2\SC(=Nc3ccccc3Cl)NC2=O)cccc1[N+](=O)[O-] | > 30 µM (inactive) |
| Cc1ccc(-c2nc3n(n2)Cc2ccccc2-3)cc1 | > 30 µM (inactive) |
| Cn1cnnc1Sc1ccc(CN2CCN(C3CCCC3)C(CCO)C2)o1 (centres undefined) | > 30 µM (inactive) |
